{"source": "patent US20220168293A1", "about": "“TIME TO RESOLUTION OF AXITINIB-RELATED ADVERSE EVENTS” (PFIZER INC., priority 2020, published 2022)", "key": {"[1]": {"experiment": "Time to resolution (TTR) of AEs after treatment interruption or discontinuation, pooled cohorts", "type": "in vivo, human", "experimental": "Five of the most common AEs associated with axitinib treatment were assessed: diarrhea; fatigue; hypertension; nausea; and palmar-plantar erythrodysesthesia syndrome (PPE). Incidences of treatment-emergent AEs were taken from the full published articles for each study. AEs were classified and graded per the Common Terminology Criteria for Adverse Events version 3.0 or the National Cancer Institute Common Terminology Criteria for Adverse Events version 4.03, as used in each individual study. Incidences of AEs were reported for any grade and for grade ≥3."}, "[2]": {"conditions": "cited from earlier work"}, "[3]": {"experiment": "Action taken for each occurrence of each AE by pooled treatment cohort", "conditions": "occurrences of the AE", "quoted_text": "To determine the TTR for each of the AEs, data were pooled for different treatment cohorts as follows: patients who received axitinib monotherapy (axitinib monotherapy cohort); patients who received axitinib in combination with IO therapy (axitinib+10 cohort); and patients in comparator treatment arms who received another TKI as monotherapy, i.e., sorafenib or sunitinib (other TKI cohort). TTR was calculated for all causality, treatment-emergent AEs. For each AE reported for patients in each pooled cohort, the action taken on presentation of the AE was documented. […] TTR was determined for AEs of any grade and for grade Data were descriptive only; no statistical comparisons were made.\nAction taken was determined as ‘not applicable’ when the associated drug was already permanently discontinued when the AE occurred."}, "[4]": {"conditions": "AEs of any grade, after treatment interruption or discontinuation"}, "[5]": {"conditions": "AEs of grade 3 or higher (FIG. 2)"}, "[6]": {"conditions": "drug already permanently discontinued"}}, "note": "Where two headings read alike, the source gives them in different places.", "data": [{"smiles": "CNC(=O)c1ccccc1Sc1ccc2c(/C=C/c3ccccn3)n[nH]c2c1", "note": "[Axitinib, axitinib]", "values": [{"measurement": "median (IQR) TTR, PPE", "setting": "[1]; [4]", "result": "3 (3-5) days"}, {"measurement": "median (IQR) TTR, diarrhea", "setting": "[1]; [4]", "result": "3 (1-6) days"}, {"measurement": "median (IQR) TTR, hypertension", "setting": "[1]; [4]", "result": "1 (1-3) days"}, {"measurement": "median (IQR) TTR, nausea", "setting": "[1]; [4]", "result": "3 (1-7) days"}, {"measurement": "median (IQR) TTR, fatigue", "setting": "[1]; AEs of any grade, after treatment interruption or discontinuation, listed as INLYTA monotherapy", "result": 8, "unit": "days"}, {"measurement": "median (IQR) TTR, fatigue", "setting": "[1]; AEs of any grade, after treatment interruption or discontinuation, listed as axitinib monotherapy", "result": "8 (4-16) days"}, {"measurement": "median (IQR) TTR, PPE", "setting": "[1]; [5]", "result": "3 (1-6) days"}, {"measurement": "median (IQR) TTR, diarrhea", "setting": "[1]; [5]", "result": "3 (2-6) days"}, {"measurement": "median (IQR) TTR, hypertension", "setting": "[1]; [5]", "result": "2 (1-8) days"}, {"measurement": "median (IQR) TTR, nausea", "setting": "[1]; [5]", "result": "4 (2-15) days"}, {"measurement": "median (IQR) TTR, fatigue", "setting": "[1]; AEs of grade 3 or higher (FIG. 2), listed as INLYTA monotherapy", "result": 8, "unit": "days"}, {"measurement": "median (IQR) TTR, fatigue", "setting": "[1]; AEs of grade 3 or higher (FIG. 2), listed as axitinib monotherapy", "result": "8 (5-16) days"}, {"measurement": "Median TTR for adverse reactions, except for fatigue (range of medians)", "setting": "[1]; all grade", "result": "1 to 3", "unit": "days"}, {"measurement": "Median TTR for adverse reactions, except for fatigue (range of medians)", "setting": "[1]; grade 3 or higher", "result": "2 to 4", "unit": "days"}, {"measurement": "half-life", "setting": "[2]; after a single 5 mg dose", "result": "2.5 to 6.1", "unit": "h"}, {"measurement": "Diarrhea, action taken: Stopped temporarily and reduced", "setting": "[3]", "result": 0, "unit": "n"}, {"measurement": "Diarrhea, action taken: Unknown", "setting": "[3]", "result": 0, "unit": "n"}, {"measurement": "Fatigue, action taken: Stopped temporarily and reduced", "setting": "[3]", "result": 0, "unit": "n"}, {"measurement": "Fatigue, action taken: Unknown", "setting": "[3]", "result": 0, "unit": "n"}, {"measurement": "Hypertension, action taken: Stopped temporarily and reduced", "setting": "[3]", "result": 0, "unit": "n"}, {"measurement": "Hypertension, action taken: Unknown", "setting": "[3]", "result": 0, "unit": "n"}, {"measurement": "Nausea, action taken: Permanently discontinued", "setting": "[3]", "result": 0, "unit": "n"}, {"measurement": "Nausea, action taken: Stopped temporarily and reduced", "setting": "[3]", "result": 0, "unit": "n"}, {"measurement": "Nausea, action taken: Unknown", "setting": "[3]", "result": 0, "unit": "n"}, {"measurement": "PPE, action taken: Stopped temporarily and reduced", "setting": "[3]", "result": 0, "unit": "n"}, {"measurement": "PPE, action taken: Unknown", "setting": "[3]", "result": 0, "unit": "n"}, {"measurement": "Diarrhea, action taken: Not applicable", "setting": "[3]; [6]", "result": 0, "unit": "n"}, {"measurement": "Fatigue, action taken: Not applicable", "setting": "[3]; [6]", "result": 0, "unit": "n"}, {"measurement": "Hypertension, action taken: Not applicable", "setting": "[3]; [6]", "result": 0, "unit": "n"}, {"measurement": "Nausea, action taken: Not applicable", "setting": "[3]; [6]", "result": 0, "unit": "n"}, {"measurement": "PPE, action taken: Not applicable", "setting": "[3]; [6]", "result": 0, "unit": "n"}]}, {"smiles": "CNC(=O)c1cc(Oc2ccc(NC(=O)Nc3ccc(Cl)c(C(F)(F)F)c3)cc2)ccn1", "note": "[Sorafenib, sorafenib]", "values": [{"measurement": "half-life", "setting": "[2]; in vivo", "result": "25 to 48", "unit": "h"}]}, {"smiles": "COc1cc2nccc(Oc3ccc(NC(=O)C4(C(=O)Nc5ccc(F)cc5)CC4)cc3)c2cc1OC", "note": "[cabozantinib]", "values": [{"measurement": "half-life", "setting": "[2]; in vivo", "result": "~99", "unit": "h"}]}, {"smiles": "CCN(CC)CCNC(=O)c1c(C)[nH]c(/C=C2\\C(=O)Nc3ccc(F)cc32)c1C", "note": "[Sunitinib, sunitinib]", "values": [{"measurement": "half-life", "setting": "[2]; in vivo", "result": "40 to 60", "unit": "h"}]}, {"smiles": "COc1cc2nccc(Oc3ccc(NC(=O)NC4CC4)c(Cl)c3)c2cc1C(N)=O", "note": "[lenvatinib]", "values": [{"measurement": "half-life", "setting": "[2]; in vivo", "result": "~28", "unit": "h"}]}]}
